From patent US6235736A, “3-anilino-2-cycloalkenone derivatives” (Nikken Chemicals Co., Ltd., priority 1997, dated 2001)

What was measured:
Type IV PDE [1] = test: PDE IV inhibitory activity (isozyme partially purified from rat neutrophils, 3H-cAMP substrate); type: biochemical; settings: rat neutrophil PDE IV, 30° C., 30 minutes, read-out: PDE IV inhibiting action IC50
Outline: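 Rat neutrophil PDE IV partially purified by ion-exchange chromatography; incubated with compound in 50 mM Tris-HCl, 5 mM MgCl2 and 3H-cAMP substrate, 30 °C for 30 min, stopped by boiling. Product converted to 3H-adenosine by 5'-nucleotidase, separated by ion exchange, counted by scintillation; IC50 in M.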

[2] = test system: TPA induced ear edema in mouse; test: TPA induced mouse ear edema assay; type: in vivo, mouse (male ICR); settings: 0.1 mg applied to right ear immediately after TPA; 6 hour
Outline: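 Male ICR mice (5 weeks, n = 7–8) received 2 μg TPA in acetone on the right ear, then 0.1 mg compound in THF–methanol (1:1) topically straight after. At 6 h, ear punches were weighed and % inhibition of edema was calculated.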

[3] = test system: DNFB contact-type dermatitis in mouse; test: Allergic contact dermatitis assay (DNFB); type: in vivo, mouse (ICR male); settings: applied 1 hour before and 5 hours after inducing ear edema; 24 hours
Experimental: 8 to 9 week old ICR type male mice were divided into groups of 8 to 9 each for use. The shaved skin of the ventral surface of each of the mice was applied with a 0.5% DNFB (2,4-dinitrofluorobenzene)acetone-olive oil solution (v/v=4/1) in an amount of 25 μl/day over 2 days to sensitize it. Four days after the second day of sensitization, a 0.2% DNFB acetone-olive oil solution was applied to the ear in an amount of 25 μl to induce contact-type dermatitis. After 24 hours, the thickness of the ear was measured using a dial thickness gauge and the difference with the value before inducing the edema was found. The test compound was dissolved in 25 μl of tetrahydrofuran-methanol (mixture ratio 1:1) and applied two time, that is, 1 hour before inducing the ear edema and 5 hours after it.
In Table 6, the effect of the compound was expressed by the ED50.

rat neutrophils = test: Inhibition of superoxide anion release from rat neutrophils (chemiluminescence); type: cell-based; settings: Neutrophil, stimulated with 0.3 micro M A23187, read-out: Action suppressing release of superoxide anions from rat neutrophils IC50
Experimental: The release of super oxide anions was measured so as to study the inhibitory effects of the compound of the present invention on inflammatory leukocytes, that is, neutrophils.
Blood sample was collected from Wister rats anestetized with ether. It was superposed on a blood cell separation solution (Polymorphoprep 1.113, Naicomed Farm) and the neutrophils were separated by centrifugation. The neutrophils were resuspended in a Hank's balanced salt solution at a concentration of 0.5×10^4 cells/ml. 0.1 mM of lusigenin and the test substance dissolved in DMSO were added to 2 ml of the cell suspension. The chemiluminescence generated by stimulation of 0.3 maicro M calcium ionophore A23187 was measured by a chemiluminescence reader so as to evaluate the release of super oxide anions.

type IV PDE [4] = settings: background art (Kokai No. 50-157360); cited from earlier work

Compound | IC50 (Type IV PDE [1]) [µM] | % Inhibition of ear edema [2] [%] | ED50 (allergic contact dermatitis, ear edema) [3] [μg/site] | IC50 (rat neutrophils) [µM] | specific inhibitory activity against type IV PDE (in words) (type IV PDE [4])
COc1ccc(NC2=CC(=O)N(Cc3ccccc3)CC2)cc1OC1CCCC1 [Compound No. 22, 1-benzyl-4-(3-cyclopentyloxy-4-methoxyanilino)-1,2,5,6-tetrahydropyridin-2-one] | 24 | 76.8 | 32 | 3.3 | –
COc1ccc(C2CNC(=O)C2)cc1OC1CCCC1 (centres unmarked) [Rolipram] | – | – | – | – | specific inhibitory activity against type IV PDE
